Key:
[1] = tested on: Pneumocystis carinii; assay: Pneumocystis carinii pneumonia in immunosuppressed rats; assay type: in vivo, Sprague-Dawley rats; details: intraperitoneally (I.P.) twice daily for four days
Procedure: In a representative study, the effectiveness of Compound A-la was determined. Sprague-Dawley rats (weighing approximately 250 grams) were immunosuppressed with dexasone in the drinking water (2.0 mg/L) and maintained on a low protein diet for five weeks to induce the development of pneumocystis pneumonia from a latent infection. […] Six rats (weighing approximately 150 grams) were injected twice daily for four days intravenously (I.V.) via the tail vein with Compound A-la in 0.25 ml of vehicle (distilled water). A vehicle control was also carried out. All animals continued to receive dexasone in the drinking water and low protein diet during the treatment period. At the completion of the treatment, all animals were sacrificed, the lungs were removed and processed, and the extent of disease determined by microscopic analysis of stained slides.
In a similar experiment, except that the rats were injected intraperitoneally (I.P.) twice daily for four days, the animals were sacrificed, the lungs removed and processed, and the extent of disease determined by microscopic analysis of stained slides.

[2] = tested on: C. albicans; assay: Minimum fungicidal concentration, microbroth dilution assay in YNBD; assay type: cell-based
Procedure: The minimum inhibitory concentrations (MICs) were recorded as the lowest concentrations of drug showing no visible growth.
After recording the MIC, the plates were shaken to resuspend the cells. […] The MFC is defined as the lowest concentration of drug showing no growth or less than 4 colonies per spot.

1-[4-hydroxy-N2-(10,12-dimethyl-1-oxotetradecyl)-ornithine]-4-[3-hydroxy-4' -O-phosphoryl-homotyrosine]-5-[3-hydroxyglutamine]-6-[3-hydroxyproline]echi nocandin B disodium salt [Compound A-2a]
ED90 for eliminating P. carinii cysts [1]: approximately 0.6 mg/kg
Minimum Fungicidal Concentration ([2]; C. albicans MY 1028): 2 µg/mL
Minimum Fungicidal Concentration ([2]; C. albicans MY 1208): 2 µg/mL

— patent publication US5385884A, “Lipopeptide derivatives” (Merck & Co. Inc., priority 1991, dated 1995)
